Our source for the IC50 values is BindingDB's records for doi:10.1021/jm00067a004 (Glaxo Group Research, 1993).

Values joined by “and” are separate entries in the source; they are usually repeats but may differ in a detail not shown here. Identical values can stand only once.

The first assay in a line: In vitro agonist activity at kappa opioid receptor in rabbit vas deferens.
On to `COC(=O)N1CCN(C(=O)Cc2ccc(Cl)c(Cl)c2)C(CN2CCCC2)C1` (centres undefined) [GR-89696], for which the IC50 is 0.041 nM and 0.018 nM.

Test in another assay: as above
This is another data set of the same source.
`CC(=O)N1CCN(C(=O)Cc2ccc(Cl)c(Cl)c2)C(CN2CCCC2)C1` (centres undefined) [1-(4-Acetyl-2-pyrrolidin-1-ylmethyl-piperazin-1-yl)-2-(3,4-dichloro-phenyl)-ethanone] yielded an IC50 of 10 nM.

`O=C(c1ccccc1)N1CCN(C(=O)Cc2ccc(Cl)c(Cl)c2)C(CN2CCCC2)C1` (centres undefined) [1-(4-Benzoyl-2-pyrrolidin-1-ylmethyl-piperazin-1-yl)-2-(3,4-dichloro-phenyl)-ethanone] registered an IC50 greater than 10000 nM.

In the case of `CCCC(=O)N1CCN(C(=O)Cc2ccc(Cl)c(Cl)c2)C(CN2CCCC2)C1` (centres undefined) [1-{4-[2-(3,4-Dichloro-phenyl)-acetyl]-3-pyrrolidin-1-ylmethyl-piperazin-1-yl}-butan-1-one], the IC50 came to 60 nM.

The compound `CCC(=O)N1CCN(C(=O)Cc2ccc(Cl)c(Cl)c2)C(CN2CCCC2)C1` (centres undefined) [1-{4-[2-(3,4-Dichloro-phenyl)-acetyl]-3-pyrrolidin-1-ylmethyl-piperazin-1-yl}-propan-1-one] yielded an IC50 of 6.9 nM. This IC50 is about 8.7-fold lower than that of the compound before.

`C=CC(=O)N1CCN(C(=O)Cc2ccc(Cl)c(Cl)c2)C(CN2CCCC2)C1` (centres undefined) [1-{4-[2-(3,4-Dichloro-phenyl)-acetyl]-3-pyrrolidin-1-ylmethyl-piperazin-1-yl}-propenone]: the IC50 was 0.42 nM.

`O=C(Cc1ccccc1)N1CCN(C(=O)Cc2ccc(Cl)c(Cl)c2)C(CN2CCCC2)C1` (centres undefined) [2-(3,4-Dichloro-phenyl)-1-(4-phenylacetyl-2-pyrrolidin-1-ylmethyl-piperazin-1-yl)-ethanone] returned an IC50 greater than 10000 nM.

As for `COCC(=O)N1CCN(C(=O)Cc2ccc(Cl)c(Cl)c2)C(CN2CCCC2)C1` (centres undefined) [2-(3,4-Dichloro-phenyl)-1-[4-(2-methoxy-acetyl)-2-pyrrolidin-1-ylmethyl-piperazin-1-yl]-ethanone], the IC50 turned out to be 2900 nM.

On to `COC(=O)N1CCN(C(=O)Cc2ccc(Cl)c(Cl)c2)C(CN2CC=CCC2)C1` (centres undefined) [4-[2-(3,4-Dichloro-phenyl)-acetyl]-3-(3,6-dihydro-2H-pyridin-1-ylmethyl)-piperazine-1-carboxylic acid methyl ester], for which the IC50 is 0.04 nM.

In turn, `COC(=O)N1CCN(C(=O)Cc2ccc(Cl)c(Cl)c2)C(CN2CCC(O)C2)C1` (centres undefined) [4-[2-(3,4-Dichloro-phenyl)-acetyl]-3-(3-hydroxy-pyrrolidin-1-ylmethyl)-piperazine-1-carboxylic acid methyl ester] yielded an IC50 of 0.34 nM.

For `COC(=O)/C=C1/CCN(CC2CN(C(=O)OC)CCN2C(=O)Cc2ccc(Cl)c(Cl)c2)C1` (centres undefined) [4-[2-(3,4-Dichloro-phenyl)-acetyl]-3-(3-methoxycarbonylmethylene-pyrrolidin-1-ylmethyl)-piperazine-1-carboxylic acid methyl ester], the IC50 was 0.28 nM.

Consider `COC(=O)/C=C1\CCN(CC2CN(C(=O)OC)CCN2C(=O)Cc2ccc(Cl)c(Cl)c2)C1` (centres undefined) [4-[2-(3,4-Dichloro-phenyl)-acetyl]-3-(3-methoxycarbonylmethylene-pyrrolidin-1-ylmethyl)-piperazine-1-carboxylic acid methyl ester], for which the IC50 is 4 nM.

Take `COC(=O)N1CCN(C(=O)Cc2ccc(Cl)c(Cl)c2)C(CN2CCC(=O)C2)C1` (centres undefined) [4-[2-(3,4-Dichloro-phenyl)-acetyl]-3-(3-oxo-pyrrolidin-1-ylmethyl)-piperazine-1-carboxylic acid methyl ester]: the IC50 stood at 0.34 nM.

`COC(=O)N1CCN(C(=O)Cc2ccc(Cl)c(Cl)c2)C(CN(C)C)C1` (centres undefined) [4-[2-(3,4-Dichloro-phenyl)-acetyl]-3-dimethylaminomethyl-piperazine-1-carboxylic acid methyl ester]: the IC50 stood at 1.2 nM.

The compound `O=CN1CCN(C(=O)Cc2ccc(Cl)c(Cl)c2)C(CN2CCCC2)C1` (centres undefined) [4-[2-(3,4-Dichloro-phenyl)-acetyl]-3-pyrrolidin-1-ylmethyl-piperazine-1-carbaldehyde] registered an IC50 of 15 nM.

`O=C(OCc1ccccc1)N1CCN(C(=O)Cc2ccc(Cl)c(Cl)c2)C(CN2CCCC2)C1` (centres undefined) [4-[2-(3,4-Dichloro-phenyl)-acetyl]-3-pyrrolidin-1-ylmethyl-piperazine-1-carboxylic acid benzyl ester] displayed an IC50 of 450 nM.

With `CCOC(=O)N1CCN(C(=O)Cc2ccc(Cl)c(Cl)c2)C(CN2CCCC2)C1` (centres undefined) [4-[2-(3,4-Dichloro-phenyl)-acetyl]-3-pyrrolidin-1-ylmethyl-piperazine-1-carboxylic acid ethyl ester], the IC50 is 3.5 nM.

The compound `O=C(Oc1ccccc1)N1CCN(C(=O)Cc2ccc(Cl)c(Cl)c2)C(CN2CCCC2)C1` (centres undefined) [4-[2-(3,4-Dichloro-phenyl)-acetyl]-3-pyrrolidin-1-ylmethyl-piperazine-1-carboxylic acid phenyl ester] registered an IC50 greater than 10000 nM.

The compound `CCCOC(=O)N1CCN(C(=O)Cc2ccc(Cl)c(Cl)c2)C(CN2CCCC2)C1` (centres undefined) [4-[2-(3,4-Dichloro-phenyl)-acetyl]-3-pyrrolidin-1-ylmethyl-piperazine-1-carboxylic acid propyl ester] had an IC50 of 300 nM.
